Key:
Assay in all cases: relative viability (nuclei count vs DMSO), 5 days (fraction); higher = more cells survive
4EGI-1 + Crizotinib = compound: O=C(O)C(Cc1ccccc1[N+](=O)[O-])=NNc1nc(-c2ccc(Cl)c(Cl)c2)cs1 (mixture of isomers) [4EGI-1] + C[C@@H](Oc1cc(-c2cnn(C3CCNCC3)c2)cnc1N)c1c(Cl)ccc(F)c1Cl [Crizotinib] (partner 1 µM)
In short: (§1)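 Lung cancer cell lines in 1536-well plates were dosed by pin tool the day after seeding, either with one drug alone or with a fixed anchor-drug dose plus five library-drug doses (not always all listed) in √10 steps. After 5 days, cells were fixed and their nuclei stained in one step (final 0.05% Triton X-100, 1% formaldehyde, 1 ug/ml Hoechst), then counted on 4× images. Relative viability is the nuclei count in treated wells divided by that in vehicle wells. Values are medians of duplicate plates.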

4EGI-1 + OSI-027 = compound: O=C(O)C(Cc1ccccc1[N+](=O)[O-])=NNc1nc(-c2ccc(Cl)c(Cl)c2)cs1 (mixture of isomers) [4EGI-1] + COc1cccc2cc(-c3nc([C@H]4CC[C@H](C(=O)O)CC4)n4ncnc(N)c34)[nH]c12 [OSI-027] (partner 0.5 µM)
In short: as §1

XMD8-85 + Olaparib = compound: CN1CCN(CC1)C2=CC(=C(C=C2)NC3=NC=C4C(=N3)N(C5=CC=CC=C5C(=O)N4C)C)OC [XMD8-85] + O=C(c1cc(Cc2n[nH]c(=O)c3ccccc23)ccc1F)N1CCN(C(=O)C2CC2)CC1 [Olaparib] (partner 8 µM)
In short: as §1

4EGI-1 + Trametinib = compound: O=C(O)C(Cc1ccccc1[N+](=O)[O-])=NNc1nc(-c2ccc(Cl)c(Cl)c2)cs1 (mixture of isomers) [4EGI-1] + CC(=O)Nc1cccc(-n2c(=O)n(C3CC3)c(=O)c3c(Nc4ccc(I)cc4F)n(C)c(=O)c(C)c32)c1 [Trametinib] (partner 0.02 µM)
In short: as §1

Cell Line	relative viability (4EGI-1 + Crizotinib; first compound 0.5 µM)	relative viability (4EGI-1 + Crizotinib; first compound 1.581 µM)	relative viability (4EGI-1 + Crizotinib; first compound 5 µM)	relative viability (4EGI-1 + Crizotinib; first compound 15.81 µM)	relative viability (4EGI-1 + Crizotinib; first compound 50 µM)	relative viability (4EGI-1 + OSI-027; first compound 0.5 µM)	relative viability (4EGI-1 + OSI-027; first compound 1.581 µM)	relative viability (4EGI-1 + OSI-027; first compound 5 µM)	relative viability (4EGI-1 + OSI-027; first compound 15.81 µM)	relative viability (4EGI-1 + OSI-027; first compound 50 µM)	relative viability (XMD8-85 + Olaparib; first compound 0.08 µM)	relative viability (XMD8-85 + Olaparib; first compound 0.253 µM)	relative viability (XMD8-85 + Olaparib; first compound 0.8 µM)	relative viability (XMD8-85 + Olaparib; first compound 2.53 µM)	relative viability (XMD8-85 + Olaparib; first compound 8 µM)	relative viability (4EGI-1 + Trametinib; first compound 0.5 µM)	relative viability (4EGI-1 + Trametinib; first compound 1.581 µM)	relative viability (4EGI-1 + Trametinib; first compound 5 µM)	relative viability (4EGI-1 + Trametinib; first compound 15.81 µM)	relative viability (4EGI-1 + Trametinib; first compound 50 µM)
NCI-H520	0.963	0.868	1.02	0.642	0.648	0.262	0.325	0.314	0.345	0.179	0.343	0.366	0.293	0.305	0.236	0.947	0.83	0.749	0.724	0.145
NCI-H647	1.05	1.05	1.16	0.656	0.155	0.7		0.739	0.671	0.399	0.573	0.378	0.605	0.408	0.118	0.585	0.493	0.475	0.384	0.129
NCI-H358	0.566	0.413	0.645	0.378	0.247	0.778	0.624	1.08	0.391	0.106	0.508	0.565	0.625	0.691	0.445	0.154	0.132	0.151	0.114	0.123
NCI-H1944	1.18		1.01	0.981	0.599	0.427		0.392	0.307	0.303	0.39	0.393	0.44	0.402	0.338	0.481		0.354	0.314	0.334
LU99A	0.657		0.677	0.463	0.215	0.306	0.275	0.269	0.274	0.288	0.247	0.154	0.238	0.242	0.218	0.516	0.436	0.583	0.538	0.307
SW 1573	0.937	0.842	0.87	0.722	0.424	0.884	0.431	0.703	0.284	0.11	0.496	0.48	0.546		0.341	0.59	0.476	0.526	0.514	0.251
ChaGo-K-1	1.23		1.15	0.961	0.553	0.595	0.526	0.558	0.483	0.381	0.409	0.43	0.409	0.433	0.347	0.911	0.845	0.896	0.942	0.592
HARA	1.06	1.07	1.03	0.906	0.212	0.651	0.517	0.648	0.453	0.154	1.28	0.581	0.698	0.387	0.399	0.882	0.632	0.944	0.539	0.211
